Tests used:
[1] = system: wild type rice (Oryza sativa L. japonica. cv. Nipponbare) plants; assay: Glyphosate resistance verification in N6 culture medium, wild type rice plants; format: in vivo; conditions: N6 culture medium containing 1 mg/L glyphosate, recorded after 10 days
Experimental: (§1) The three TIPS EPSPS site mutation lines (T0-1, T0-5 and T0-7) obtained from Example 4 and wild type rice (Oryza sativa L. japonica. cv. Nipponbare) plants were placed into an N6 culture medium containing 1 mg/L glyphosate, and cultured under the routine culture conditions. The resistance results were recorded after 10 days. Verification was carried out in more than 3 plants for each TIPS EPSPS site mutation line.

[2] = system: TIPS EPSPS site mutation lines (T0-1, T0-5 and T0-7); assay: Glyphosate resistance verification in N6 culture medium, TIPS EPSPS site mutation lines; format: in vivo, Oryza sativa L. japonica. cv. Nipponbare; conditions: N6 culture medium containing 1 mg/L glyphosate, recorded after 10 days, TIPS EPSPS mutant rice T0-1, T0-5, T0-7
Experimental: as §1

O=C(O)CNCP(=O)(O)O [glyphosate]
resistance results (plant condition) [1]: chlorotic and wilting to die
resistance results (plant condition) [2]: survived normally

Source: patent US11767536B2, “Method for obtaining glyphosate-resistant rice by site-directed nucleotide substitution” (Institute of Genetics and Developmental Biology, Chinese …, priority 2015, dated 2023)
